In patent publication US8653092B2, “Tetrahydro-pyrido-pyrimidine derivatives” (Novartis AG, priority 2010, dated 2014):
Read-outs that look alike come from different tables or passages of the source.

Columns and labels:
PI3K alpha = PI3K alpha (Homo sapiens (Human), UniProt P42336); experiment: Enzymatic PI3K alpha isoform inhibition (lipid kinase, Kinase-Glo luminescence); format: biochemical; conditions: enzymatic assay
PI3K delta = PI3K delta (Homo sapiens (Human), UniProt O00329); experiment: Enzymatic PI3K delta isoform inhibition (lipid kinase, Kinase-Glo luminescence); format: biochemical
Sequence of PI3K delta (O00329 other isoform, or with tags, fused parts or gaps linker GGGGGG): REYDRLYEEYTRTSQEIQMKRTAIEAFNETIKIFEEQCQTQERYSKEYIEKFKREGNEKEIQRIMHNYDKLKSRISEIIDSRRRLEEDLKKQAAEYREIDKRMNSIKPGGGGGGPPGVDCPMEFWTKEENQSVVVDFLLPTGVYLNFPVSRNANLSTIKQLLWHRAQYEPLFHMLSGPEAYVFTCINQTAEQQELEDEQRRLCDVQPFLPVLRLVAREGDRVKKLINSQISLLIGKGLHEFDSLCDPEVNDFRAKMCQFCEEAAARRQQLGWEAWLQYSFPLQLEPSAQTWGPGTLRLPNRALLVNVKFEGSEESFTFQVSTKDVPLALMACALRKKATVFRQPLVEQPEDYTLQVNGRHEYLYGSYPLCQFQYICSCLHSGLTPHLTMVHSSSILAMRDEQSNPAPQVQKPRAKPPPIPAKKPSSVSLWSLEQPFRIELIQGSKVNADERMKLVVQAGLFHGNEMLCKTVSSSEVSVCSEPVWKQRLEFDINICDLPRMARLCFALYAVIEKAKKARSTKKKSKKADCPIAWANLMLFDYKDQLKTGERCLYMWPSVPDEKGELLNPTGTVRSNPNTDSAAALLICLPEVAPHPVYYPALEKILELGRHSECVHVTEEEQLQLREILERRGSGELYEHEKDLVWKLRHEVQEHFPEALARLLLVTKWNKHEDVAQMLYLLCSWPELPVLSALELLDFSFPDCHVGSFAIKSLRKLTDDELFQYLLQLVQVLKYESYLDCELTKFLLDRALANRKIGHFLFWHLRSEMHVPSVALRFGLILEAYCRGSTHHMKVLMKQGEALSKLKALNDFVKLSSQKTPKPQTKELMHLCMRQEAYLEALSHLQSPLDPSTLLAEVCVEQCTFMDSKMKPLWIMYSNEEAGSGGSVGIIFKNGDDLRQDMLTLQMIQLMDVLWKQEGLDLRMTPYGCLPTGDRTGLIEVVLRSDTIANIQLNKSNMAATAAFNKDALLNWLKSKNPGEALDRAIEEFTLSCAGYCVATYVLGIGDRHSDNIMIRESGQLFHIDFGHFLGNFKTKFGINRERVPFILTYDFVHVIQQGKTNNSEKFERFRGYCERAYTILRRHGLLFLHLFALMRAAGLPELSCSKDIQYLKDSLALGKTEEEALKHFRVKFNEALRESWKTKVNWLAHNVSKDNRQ

Sequence of PI3K alpha (P42336 other isoform, or with tags, fused parts or gaps): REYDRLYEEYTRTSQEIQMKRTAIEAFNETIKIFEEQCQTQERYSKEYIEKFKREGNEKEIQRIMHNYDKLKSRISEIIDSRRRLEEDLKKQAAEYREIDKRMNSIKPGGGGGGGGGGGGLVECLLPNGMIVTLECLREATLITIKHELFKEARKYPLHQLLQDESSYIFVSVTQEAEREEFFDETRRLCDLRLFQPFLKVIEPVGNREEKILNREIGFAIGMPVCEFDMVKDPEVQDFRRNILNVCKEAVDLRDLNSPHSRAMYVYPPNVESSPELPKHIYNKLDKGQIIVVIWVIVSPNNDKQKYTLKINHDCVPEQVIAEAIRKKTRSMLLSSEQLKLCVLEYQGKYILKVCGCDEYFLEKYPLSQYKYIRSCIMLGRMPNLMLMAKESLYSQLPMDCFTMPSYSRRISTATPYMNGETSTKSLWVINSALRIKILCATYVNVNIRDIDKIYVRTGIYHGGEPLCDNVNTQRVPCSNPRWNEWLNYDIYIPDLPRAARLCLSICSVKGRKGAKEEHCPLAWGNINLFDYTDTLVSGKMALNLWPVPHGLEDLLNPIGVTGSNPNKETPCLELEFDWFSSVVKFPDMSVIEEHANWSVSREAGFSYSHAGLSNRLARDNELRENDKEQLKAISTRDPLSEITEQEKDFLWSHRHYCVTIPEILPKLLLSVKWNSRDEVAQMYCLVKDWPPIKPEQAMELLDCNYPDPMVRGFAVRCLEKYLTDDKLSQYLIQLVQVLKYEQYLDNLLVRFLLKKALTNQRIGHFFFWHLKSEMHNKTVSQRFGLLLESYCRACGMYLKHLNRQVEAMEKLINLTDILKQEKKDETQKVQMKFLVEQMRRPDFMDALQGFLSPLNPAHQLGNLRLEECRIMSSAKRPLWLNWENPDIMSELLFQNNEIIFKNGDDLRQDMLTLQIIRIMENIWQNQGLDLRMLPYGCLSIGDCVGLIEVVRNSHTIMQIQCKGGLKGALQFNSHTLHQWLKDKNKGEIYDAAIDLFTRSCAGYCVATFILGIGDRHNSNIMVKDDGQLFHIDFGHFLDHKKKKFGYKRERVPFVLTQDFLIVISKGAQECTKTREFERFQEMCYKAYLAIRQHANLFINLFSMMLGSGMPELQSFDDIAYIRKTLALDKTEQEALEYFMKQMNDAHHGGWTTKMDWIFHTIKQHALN

Row | SMILES | IC50 (PI3K alpha) [nM] | IC50 (PI3K delta; enzymatic assay) [nM] | IC50 (PI3K delta) [nM]
1 | COc1ncc(N2CCc3ncnc(O[C@H]4CCN(C(=O)c5cscn5)C4)c3C2)cc1C(F)(F)F [Example 55, {(S)-3-[6-(6-Methoxy-5-trifluoromethyl-pyridin-3-yl)-5,6,7,8-tetrahydro-pyrido[4,3-d]pyrimidin-4-yloxy]-pyrrolidin-1-yl}-thiazol-4-yl-methanone] | 661 | 5 | 
2 | COc1ncc(N2CCc3ncnc(O[C@H]4CCN(C(=O)C5CCOCC5)C4)c3C2)cc1Cl [Example 56, {(S)-3-[6-(5-Chloro-6-methoxy-pyridin-3-yl)-5,6,7,8-tetrahydro-pyrido[4,3-d]pyrimidin-4-yloxy]-pyrrolidin-1-yl}-(tetrahydro-pyran-4-yl)-methanone] | 860 | 13 | 
3 | Nc1ncc(N2CCc3ncnc(O[C@H]4CCN(C(=O)C5CCOCC5)C4)c3C2)cc1C(F)(F)F [Example 57, {(S)-3-[6-(6-Amino-5-trifluoromethyl-pyridin-3-yl)-5,6,7,8-tetrahydro-pyrido[4,3-d]pyrimidin-4-yloxy]-pyrrolidin-1-yl}-(tetrahydro-pyran-4-yl)-methanone] | 590 | 25 | 
4 | COc1ncc(N2CCc3ncnc(OC4CN(C(=O)C5CCOCC5)C4)c3C2)cc1C(F)(F)F [Example 58, {3-[6-(6-Methoxy-5-trifluoromethyl-pyridin-3-yl)-5,6,7,8-tetrahydro-pyrido[4,3-d]pyrimidin-4-yloxy]-azetidin-1-yl}-(tetrahydro-pyran-4-yl)-methanone] | 3060 | 30 | 
5 | COc1ncc(N2CCc3ncnc(O[C@H]4CCN(C(=O)C5CCOCC5)C4)c3C2)cn1 [Example 59, {(S)-3-[6-(2-Methoxy-pyrimidin-5-yl)-5,6,7,8-tetrahydro-pyrido[4,3-d]pyrimidin-4-yloxy]-pyrrolidin-1-yl}-(tetrahydro-pyran-4-yl)-methanone] | 9100 | 28 | 
6 | O=C(C1CCOCC1)N1CC[C@H](Oc2ncnc3c2CN(c2cnc4ccccc4c2)CC3)C1 [Example 60, [(S)-3-(6-Quinolin-3-yl-5,6,7,8-tetrahydro-pyrido[4,3-d]pyrimidin-4-yloxy)-pyrrolidin-1-yl]-(tetrahydro-pyran-4-yl)-methanone] | 3330 | 45 | 
7 | CCC(=O)N1CC[C@H](Oc2ncnc3c2CN(c2cnc(OC)c(C(F)(F)F)c2)CC3)C1 [Example 63, 1-{(S)-3-[6-(6-Methoxy-5-trifluoromethyl-pyridin-3-yl)-5,6,7,8-tetrahydro-pyrido[4,3-d]pyrimidin-4-yloxy]-pyrrolidin-1-yl}-propan-1-one] | 791 | 51 | 
8 | CCC(=O)N1CC[C@H](Oc2ncnc3c2CN(c2cnc(OC)c(C#N)c2)CC3)C1 [Example 64, 2-Methoxy-5-[4-((S)-1-propionyl-pyrrolidin-3-yloxy)-7,8-dihydro-5H-pyrido[4,3-d]pyrimidin-6-yl]-nicotinonitrile] | 2330 | 32 | 
9 | COc1ncc(N2CCc3ncnc(O[C@H]4CCN(c5ncccn5)C4)c3C2)cc1C(F)(F)F [Example 66, 6-(6-Methoxy-5-trifluoromethyl-pyridin-3-yl)-4-((S)-1-pyrimidin-2-yl-pyrrolidin-3-yloxy)-5,6,7,8-tetrahydro-pyrido[4,3-d]pyrimidine] | 1280 |  | 14
10 | COc1ncc(N2CCc3ncnc(N[C@H]4CCN(C(=O)c5cn(C)cn5)C4)c3C2)cc1C [Example 77, -{(S)-3-[6-(6-Methoxy-5-methyl-pyridin-3-yl)-5,6,7,8-tetrahydro-pyrido[4,3-d]pyrimidin-4-ylamino]-pyrrolidin-1-yl}-(1-methyl-1H-imidazol-4-yl)-methanone] | 1290 | 44 | 
11 | COc1ncc(N2CCc3ncnc(N[C@H]4CCN(C(=O)c5cocn5)C4)c3C2)cc1C [Example 79, {(S)-3-[6-(6-Methoxy-5-methyl-pyridin-3-yl)-5,6,7,8-tetrahydro-pyrido[4,3-d]pyrimidin-4-ylamino]-pyrrolidin-1-yl}-oxazol-4-yl-methanone] | 781 | 17 | 
12 | COc1ncc(N2CCc3ncnc(O[C@H]4CCN(C(=O)N5CCOCC5)C4)c3C2)cc1C(F)(F)F [Example 86, -{(S)-3-[6-(6-Methoxy-5-trifluoromethyl-pyridin-3-yl)-5,6,7,8-tetrahydro-pyrido[4,3-d]pyrimidin-4-yloxy]-pyrrolidin-1-yl}-morpholin-4-yl-methanone] | 1330 | 20 | 
13 | COc1ncc(N2CCc3ncnc(O[C@H]4CCN(C(=O)N(C)CCO)C4)c3C2)cc1C(F)(F)F [Example 88, (S)-3-[6-(6-Methoxy-5-trifluoromethyl-pyridin-3-yl)-5,6,7,8-tetrahydro-pyrido[4,3-d]pyrimidin-4-yloxy]-pyrrolidine-1-carboxylic acid (2-hydroxy-ethyl)-methyl-amide] | 1340 | 34 | 
14 | COc1ncc(N2CCc3ncnc(O[C@H]4CCN(C(=O)N5CCN(C(C)=O)CC5)C4)c3C2)cc1C(F)(F)F [Example 89, 1-(4-{(S)-3-[6-(6-methoxy-5-trifluoromethyl-pyridin-3-yl)-5,6,7,8-tetrahydro-pyrido[4,3-d]pyrimidin-4-yloxy]-pyrrolidine-1-carbonyl}-piperazin-1-yl)-ethanone] | 1190 | 29 | 
15 | COc1ncc(N2CCc3ncnc(O[C@H]4CCN(C(=O)c5cocn5)C4)c3C2)cc1C(F)(F)F [Example 91, {(S)-3-[6-(6-methoxy-5-trifluoromethyl-pyridin-3-yl)-5,6,7,8-tetrahydro-pyrido[4,3-d]pyrimidin-4-yloxy]-pyrrolidin-1-yl}-oxazol-4-yl-methanone] | 924 | 11 | 
16 | COc1ncc(N2CCc3ncnc(O[C@H]4CCN(C(=O)C5CCN(C(C)=O)CC5)C4)c3C2)cc1C(F)(F)F [Example 92, 1-(4-{(S)-3-[6-(6-Methoxy-5-trifluoromethyl-pyridin-3-yl)-5,6,7,8-tetrahydro-pyrido[4,3-d]pyrimidin-4-yloxy]-pyrrolidine-1-carbonyl}-piperidin-1-yl)-ethanone] | 2540 | 9 | 
17 | COc1ncc(N2CCc3ncnc(O[C@H]4CCN(C(=O)c5cncn5C)C4)c3C2)cc1C(F)(F)F [Example 93, {(S)-3-[6-(6-Methoxy-5-trifluoromethyl-pyridin-3-yl)-5,6,7,8-tetrahydro-pyrido[4,3-d]pyrimidin-4-yloxy]-pyrrolidin-1-yl}-(3-methyl-3H-imidazol-4-yl)-methanone] | 872 | 24 | 

The next lines start with results.

Row | IC50 (PI3K alpha) [nM] | IC50 (PI3K delta; enzymatic assay) [nM] | SMILES | IC50 (PI3K delta) [nM]
18 | 589 | 12 | COc1ncc(N2CCc3ncnc(O[C@H]4CCN(C(=O)C5CCOCC5)C4)c3C2)cc1C(F)(F)F [Example 61, {(S)-3-[6-(6-Methoxy-5-trifluoromethyl-pyridin-3-yl)-5,6,7,8-tetrahydro-pyrido[4,3-d]pyrimidin-4-yloxy]-pyrrolidin-1-yl}-(tetrahydro-pyran-4-yl)-methanone] | 
19 | 489 | 23 | COc1ncc(N2CCc3ncnc(O[C@H]4CCN(C(=O)CC(C)(C)C)C4)c3C2)cc1C(F)(F)F [Example 62, 1-{(S)-3-[6-(6-Methoxy-5-trifluoromethyl-pyridin-3-yl)-5,6,7,8-tetrahydro-pyrido[4,3-d]pyrimidin-4-yloxy]-pyrrolidin-1-yl}-3,3-dimethyl-butan-1-one] | 
20 | 56 | 3 | COc1ncc(N2CCc3ncnc(N[C@H]4CCN(C(=O)C5CCOCC5)C4)c3C2)cc1C#N [Example 69, 2-Methoxy-5-{4-[(S)-1-(tetrahydro-pyran-4-carbonyl)-pyrrolidin-3-ylamino]-7,8-dihydro-5H-pyrido[4,3-d]pyrimidin-6-yl}-nicotinonitrile] | 
21 | 121 | 6 | COc1ncc(N2CCc3ncnc(N[C@H]4CCN(C(=O)C5CCN(C(C)=O)CC5)C4)c3C2)cc1C(F)(F)F [Example 70, 1-(4-{(S)-3-[6-(6-methoxy-5-trifluoromethyl-pyridin-3-yl)-5,6,7,8-tetrahydro-pyrido[4,3-d]pyrimidin-4-ylamino]-pyrrolidine-1-carbonyl}-piperidin-1-yl)-ethanone] | 
22 | 93 | 4 | COc1ncc(N2CCc3ncnc(N[C@H]4CCN(C(=O)c5cnco5)C4)c3C2)cc1C(F)(F)F [Example 72, {(S)-3-[6-(6-Methoxy-5-trifluoromethyl-pyridin-3-yl)-5,6,7,8-tetrahydro-pyrido[4,3-d]pyrimidin-4-ylamino]-pyrrolidin-1-yl}-oxazol-5-yl-methanone] | 
23 | 384 | 12 | COc1ncc(N2CCc3ncnc(N[C@H]4CCN(C(=O)c5cnco5)C4)c3C2)cc1C [Example 78, {(S)-3-[6-(6-Methoxy-5-methyl-pyridin-3-yl)-5,6,7,8-tetrahydro-pyrido[4,3-d]pyrimidin-4-ylamino]-pyrrolidin-1-yl}-oxazol-5-yl-methanone] | 
24 | 430 | 16 | COc1ncc(N2CCc3ncnc(N[C@H]4CCN(C(=O)C5CCOC(C)(C)C5)C4)c3C2)cc1C (stereo partly drawn) [Example 80, (2,2-Dimethyl-tetrahydro-pyran-4-yl)-{(S)-3-[6-(6-methoxy-5-methyl-pyridin-3-yl)-5,6,7,8-tetrahydro-pyrido[4,3-d]pyrimidin-4-ylamino]-pyrrolidin-1-yl}-methanone] | 
25 | 58 | 9 | O=C(C1CCOCC1)N1CC[C@H](Nc2ncnc3c2CN(c2cncc(C(F)(F)F)c2)CC3)C1 [Example 84, (Tetrahydro-pyran-4-yl)-{(S)-3-{6-(5-(trifluoromethyl)pyridin-3-yl)-5,6,7,8-tetrahydropyrido[4,3-d]pyrimidin-4-ylamino)pyrrolidin-1-yl}-methanone] | 
26 | 452 | 12 | COc1ncc(N2CCc3ncnc(O[C@H]4CCN(C(=O)N5CCC(O)CC5)C4)c3C2)cc1C(F)(F)F [Example 87, (4-Hydroxy-piperidin-1-yl)-{(S)-3-[6-(6-methoxy-5-trifluoromethyl-pyridin-3-yl)-5,6,7,8-tetrahydro-pyrido[4,3-d]pyrimidin-4-yloxy]-pyrrolidin-1-yl}-methanone] | 
